Residue numbers refer to the chain shown, from its start. Where two headings read alike, the source gives them in different places.
Experiments:
mutant MGL = target: T1, mutant MGL (Homo sapiens, UniProt Q99685, L169S/L176S); experiment: MGL ThermoFluor assay - mutant; type: binding
T1 sequence (Q99685 1-303 L169S/L176S): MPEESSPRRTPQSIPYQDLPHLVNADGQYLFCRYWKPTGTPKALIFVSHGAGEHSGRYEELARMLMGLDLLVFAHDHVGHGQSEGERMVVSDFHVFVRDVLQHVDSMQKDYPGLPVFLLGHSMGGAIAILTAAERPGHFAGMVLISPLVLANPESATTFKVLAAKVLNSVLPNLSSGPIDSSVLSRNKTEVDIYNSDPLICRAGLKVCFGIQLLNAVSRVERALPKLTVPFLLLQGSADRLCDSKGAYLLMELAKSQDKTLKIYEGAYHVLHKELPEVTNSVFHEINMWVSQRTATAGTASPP

[1] = target: T2, purified wild type MGL (wt-MGLL 6H-11-313) (Homo sapiens, UniProt Q99685)
T2 sequence (Q99685 1-303): T1 sequence (Q99685 1-303 L169S/L176S) with S169L, S176L

[2] = ThermoFluor concentration-response, read-out: MGL mutant ThermoFluor Kd
[3] = ThermoFluor, compound concentration measured by qNMR, read-out: MGL mutant ThermoFluor qKd (using qNMR conc.)
[4] = ThermoFluor, compound concentration measured by qNMR, read-out: MGL mutant ThermoFluor qKd (μM) (using qNMR conc.)
[5] = ThermoFluor thermal stability binding assay, read-out: MGL mutant ThermoFluor Kd
[6] = compound concentration measured by qNMR, read-out: MGL mutant ThermoFluor qKd (using qNMR conc.)

Row | Compound | Kd (mutant MGL; [2]) [µM] | IC50 [1] [nM] | further results
1 | Cc1c(Cc2ccc(C(F)(F)F)cc2)cccc1C(=O)N1CC(N2CCN(C(=O)c3cncs3)CC2)C1 [Cpd 1015] | 1.18 | 777 | 
2 | Cc1nn(Cc2ccc(Cl)cc2)c2sc(C(=O)N3CC(N4CCN(C(=O)c5nccs5)CC4)C3)cc12 [Cpd 1053] |  | 18 | Kd (mutant MGL; [3]): 0.247 µM
3 | O=C(c1ccc2nn(-c3cccc(C(F)(F)F)c3)cc2c1)N1CC(N2CCN(C(=O)c3nccs3)CC2)C1 [Cpd 1420] |  | 5 | Kd (mutant MGL; [4]): 0.08 µM
4 | O=C(c1ccc2c(-c3ccccc3)c(-c3ccccc3)[nH]c2c1)N1CC(N2CCN(C(=O)c3nccs3)CC2)C1 [Cpd 1119] |  | 17 | Kd (mutant MGL; [3]): 0.02 µM
5 | O=C(c1ccc2c(ccn2-c2ccc(F)cc2)c1)N1CC(N2CCN(C(=O)c3cnco3)CC2)C1 [Cpd 1429] |  | 36 | Kd (mutant MGL; [4]): 0.097 µM
6 | Cc1c(C(=O)N2CC(N3CCN(C(=O)c4nccs4)CC3)C2)sc2ccc(C(F)(F)F)cc12 [Cpd 897] |  | < 5 | Kd (mutant MGL; [5]): 0.002 µM
7 | O=C(c1cscn1)N1CCN(C2CN(C(=O)c3cc4ccc(C(F)(F)F)nc4o3)C2)CC1 [Cpd 808] | 62.5 | 2080 | 
8 | O=C(c1nccs1)N1CCN(C2CN(C(=O)c3cc4ccn(-c5ccc(F)cc5)c4cc3Cl)C2)CC1 [Cpd 1416] |  | 39 | Kd (mutant MGL; [6]): 0.015 µM
9 | O=C(c1cccc(-c2ccc(F)cc2F)c1)N1CC(N2CCN(C(=O)c3cscn3)CC2)C1 [Cpd 1239] | 3.04 | 449 | 
10 | Cn1cc(Cc2ccc(F)cc2)c2ccc(C(=O)N3CC(N4CCN(C(=O)c5nccs5)CC4)C3)cc21 [Cpd 1026] |  | 16 | Kd (mutant MGL; [6]): 0.001 µM
11 | O=C(c1nccs1)N1CCN(C2CN(C(=O)c3cccc4oc(-c5ccc(F)cc5)nc34)C2)CC1 [Cpd 1257] |  | 827 | Kd (mutant MGL; [5]): 0.009 µM
12 | NC(=O)c1cccc(-n2ccc3cc(C(=O)N4CC(N5CCN(C(=O)c6ccccc6)CC5)C4)ccc32)c1 [Cpd 594, 3-[5-({3-[4-(Phenylcarbonyl)piperazin-1-yl]azetidin-1-yl}carbonyl)-1H-indol-1-yl]benzamide] |  | 449 | Kd (mutant MGL; [4]): 0.743 µM
13 | Cc1cc(-n2ccc3cc(C(=O)N4CC(N5CCN(C(=O)c6ccccc6)CC5)C4)ccc32)ccc1C#N [Cpd 566, 2-Methyl-4-[5-({3-[4-(phenylcarbonyl)piperazin-1-yl]azetidin-1-yl}carbonyl)-1H-indol-1-yl]benzonitrile] |  | 14 | Kd (mutant MGL; [4]): 0.031 µM
14 | O=C(c1ccc(S(=O)(=O)N2CCCCC2)cc1)N1CC(N2CCN(C(=O)c3nccs3)CC2)C1 [Cpd 947] |  | 1060 | Kd (mutant MGL; [3]): 0.653 µM
15 | O=C(c1ccccc1)N1CCN(C2CN(C(=O)c3ccc(Oc4ccc(Cl)cn4)cc3)C2)CC1 [Cpd 520] | 2 | 2030 | 
16 | CC(c1ccccc1)n1ncc2cc(C(=O)N3CC(N4CCN(C(=O)c5nccs5)CC4)C3)ccc21 (stereo not drawn) [Cpd 1411, 1-(1-Phenylethyl)-5-({3-[4-(1,3-thiazol-2-ylcarbonyl)piperazin-1-yl]azetidin-1-yl}carbonyl)-1H-indazole] |  | 12 | Kd (mutant MGL; [6]): 0.001 µM
17 | O=C(c1ccc2nc(C(F)(F)F)cc(Cl)c2c1)N1CCN(C2CN(C(=O)c3nccs3)C2)CC1 [Cpd 842] | 0.986 | 5530 | 
18 | O=C(c1ccc(Oc2ccc(Cl)cn2)cc1)N1CC(N2CCN(C(=O)c3nccs3)CC2)C1 [Cpd 717] | 0.067 | 147 | 
19 | O=C(c1ccc2[nH]c(C3CCCCC3)nc2c1)N1CC(N2CCN(C(=O)c3nccs3)CC2)C1 [Cpd 735] | 0.16 | 268 | 
20 | Cc1cc(-n2ccc3cc(C(=O)N4CC(N5CCN(C(=O)c6nccs6)CC5)C4)ccc32)ccc1C#N [Cpd 1375, 2-Methyl-4-[5-({3-[4-(1,3-thiazol-2-ylcarbonyl)piperazin-1-yl]azetidin-1-yl}carbonyl)-1H-indol-1-yl]benzonitrile] |  | < 5 | Kd (mutant MGL; [4]): 0.003 µM
21 | Cc1nc2cc(C(=O)N3CC(N4CCN(C(=O)c5cscn5)CC4)C3)ccc2n1-c1ccc(F)cc1 [Cpd 1291] |  | 2780 | Kd (mutant MGL; [6]): 0.179 µM

Row | Compound | Kd (mutant MGL; [2]) [µM] | IC50 [1] [nM] | further results
22 | O=C(c1ccc2cn(Cc3ccc(F)cc3)nc2c1)N1CC(N2CCN(C(=O)c3nccs3)CC2)C1 [Cpd 1052, 2-(4-Fluorobenzyl)-6-({3-[4-(1,3-thiazol-2-ylcarbonyl)piperazin-1-yl]azetidin-1-yl}carbonyl)-2H-indazole] |  | 28 | Kd (mutant MGL; [6]): 0.065 µM
23 | O=C(c1ccccc1)N1CCN(C2CN(C(=O)c3sc4cc(Cl)ccc4c3C(F)(F)F)C2)CC1 [Cpd 512] | 0.05 | 260 | 
24 | O=C(c1ccc(-n2ccc(C(F)(F)F)n2)cc1)N1CC(N2CCN(C(=O)c3nccs3)CC2)C1 [Cpd 1249] | 0.241 | 605 | 
25 | O=C(c1cscn1)N1CC(N2CCN(C(=O)c3cc4cc(Br)cnc4o3)CC2)C1 [Cpd 1449] |  | > 16700 | Kd (mutant MGL; [5]): 3.19 µM
26 | Cc1noc(C)c1-c1ccc2cc(C(=O)N3CC(N4CCN(C(=O)c5nccs5)CC4)C3)[nH]c2c1 [Cpd 1211] |  | 200 | Kd (mutant MGL; [4]): 0.106 µM
27 | O=C(c1ccc2nc(C(F)(F)F)cc(Cl)c2c1)N1CC(N2CCN(C(=O)c3cscn3)CC2)C1 [Cpd 848] | 0.833 | 6900 | 
28 | CC(C)n1c(C(F)(F)F)nc2cc(C(=O)N3CC(N4CCN(C(=O)c5nccs5)CC4)C3)ccc21 [Cpd 740] | 0.035 | 294 | 
29 | COc1ccc2c(C)c(C(=O)N3CC(N4CCN(C(=O)c5cscn5)CC4)C3)oc2c1 [Cpd 850] | 1 | 7280 | 
30 | O=C(c1ccc2c(c1)ncn2CC(F)(F)F)N1CC(N2CCN(C(=O)c3cscn3)CC2)C1 [Cpd 841] |  | 5260 | Kd (mutant MGL; [6]): 0.917 µM
31 | O=C(c1ccc2c(c1)CCN2Cc1ccccc1)N1CC(N2CCN(C(=O)c3nccs3)CC2)C1 [Cpd 994, 1-Benzyl-5-({3-[4-(1,3-thiazol-2-ylcarbonyl)piperazin-1-yl]azetidin-1-yl}carbonyl)-2,3-dihydro-1H-indole] | 0.002 | 13 | 
32 | O=C(c1ccc2c(c1)OCCCO2)N1CC(N2CCN(C(=O)c3nccs3)CC2)C1 [Cpd 770] |  | 740 | Kd (mutant MGL; [3]): 1.13 µM
33 | O=C(c1ccc2c(ccn2-c2ccc(F)cc2)c1)N1CC(N2CCN(C(=O)c3ncco3)CC2)C1 [Cpd 1426] |  | < 5 | Kd (mutant MGL; [4]): 0.029 µM
34 | O=C(c1cc(-c2cccc(C(F)(F)F)c2)cs1)N1CC(N2CCN(C(=O)c3nccs3)CC2)C1 [Cpd 1321] |  | < 5 | Kd (mutant MGL; [4]): 0.067 µM
35 | CC(c1ccccc1)n1cc2cc(C(=O)N3CC(N4CCN(C(=O)c5nccs5)CC4)C3)ccc2n1 (stereo not drawn) [Cpd 1040, 2-(1-Phenylethyl)-5-({3-[4-(1,3-thiazol-2-ylcarbonyl)piperazin-1-yl]azetidin-1-yl}carbonyl)-2H-indazole] |  | 25 | Kd (mutant MGL; [6]): 0.014 µM
36 | Cc1nc2cc(C(=O)N3CC(N4CCN(C(=O)c5nccs5)CC4)C3)ccc2n1C1CCC(F)(F)CC1 [Cpd 798] |  | 1630 | Kd (mutant MGL; [6]): 0.004 µM
37 | O=C(c1cc(F)cc(-c2ccccc2)c1)N1CC(N2CCN(C(=O)c3cscn3)CC2)C1 [Cpd 1273] | 1.83 | 1610 | 
38 | O=C(c1cscn1)N1CCN(C2CN(C(=O)c3cc4nc(C(F)(F)F)ccc4[nH]3)C2)CC1 [Cpd 1450] |  | > 16700 | Kd (mutant MGL; [4]): 12.6 µM
39 | O=C(c1ccccc1)N1CCN(C2CN(C(=O)c3cc(-c4cccc(F)c4)c4[nH]ccc4c3)C2)CC1 [Cpd 600] |  | 1150 | Kd (mutant MGL; [4]): 1.97 µM
40 | O=C(c1ccc2c(c1)[nH]c(=O)n2CCC(F)(F)F)N1CC(N2CCN(C(=O)c3cscn3)CC2)C1 [Cpd 944] | 0.802 | 7320 | 
41 | O=C(c1ccc2c(c1)ncn2CCC(F)(F)F)N1CC(N2CCN(C(=O)c3cscn3)CC2)C1 [Cpd 851] |  | 7870 | Kd (mutant MGL; [6]): 0.883 µM
42 | O=C(c1ccc(-n2cnc3ccccc32)cc1)N1CC(N2CCN(C(=O)c3cscn3)CC2)C1 [Cpd 1293] | 1.67 | 3170 | 

Source: patent publication US8362000B2, “Azetidinyl diamides as monoacylglycerol lipase inhibitors” (Janssen Pharmaceutica NV, priority 2009, dated 2013)
